# How the values were obtained:
# HDAC2 = molecular target: T1, HDAC2 (Homo sapiens, UniProt Q92769); test: HDAC2 Enzymatic Inhibition Assay in SH-SY5Y Cell Lysate with an Exogenous Substrate (HDAC-Glo 2); type: cell-based; conditions: SH-SY5Y cells, five hours incubation, Table 3, class symbols
# T1 construct: host or cells: SH-SY5Y cells
# Procedure: HDAC2 Enzymatic Inhibition Assay in SH-SY5Y Cell Lysate with an Exogenous Substrate
# SH-SY5Y cells (Sigma) were cultured in Eagle's Modified Essential Medium supplemented with 10% fetal bovine serum and pen/strep. Twenty-four hours prior to compound dosing 20 uL of cells were plated in white 384 well plates at a density of 1,500 cells/well. Compounds were serially diluted in neat DMSO and then diluted 1:100 v/v into media without FBS and mixed. Media was removed from the plated cells and the diluted compounds in serum free media (1% v/v final DMSO) were added and incubated at 37° C. for five hours. Ten uL of HDAC-Glo 2 reagent with 0.1% Triton X-100 was then added, the plate was mixed and allowed to develop at room temperature for 100 minutes. Plates were then read with a Spectramax LMax luminometer employing a 0.4 s integration time. Dose response curves were constructed with normalized data where CI-994 at 100 uM was defined as 100% inhibition and DMSO alone as 0% inhibition.
# (§1) In the table, “A” indicates a IC50 value of less than 0.5 μM; “B” a IC50 value from 0.5 μM to 1.0 μM; “C” a IC50 value of greater than 1.0 μM and less than or equal to 2.0 μM; and “D” indicates an IC50 value of greater than 2.0 μM. NT=Not Tested.
# Full length Human HDAC2 = molecular target: T2, Full length Human HDAC2 (Homo sapiens, UniProt Q92769); test: HDAC2 enzymatic assay (deacetylation of FAM-labeled peptide substrate, microfluidic electrophoresis); type: biochemical; conditions: recombinant enzymatic assay
# T2 construct: Full length Human HDAC2; FLAG (C); host or cells: baculovirus expression system
# Procedure: (§2) HDAC2 and HDAC1 Enzymatic Assay (HDAC2 and HDAC1 IC50 Data)
# (§3) The following describes an assay protocol for measuring the deacetylation of a peptide substrate by HDAC2 or HDAC1.
# (§4) HD AC protein composition and respective substrate peptides are summarized below.
# (§5) HD AC reactions are assembled in 384 well plates (Greiner) in a total volume of 20 μL as following:
# (§6) HDAC proteins are pre-diluted in the assay buffer comprising: 100 mM HEPES, pH 7.5, 0.1% BSA, 0.01% Triton X-100, 25 mM KCl and dispensed into 384 well plate (10 uL per well).
# (§7) Test compounds are serially pre-diluted in DMSO and added to the protein samples by acoustic dispensing (Labcyte Echo). Concentration of DMSO is equalized to 1% in all samples.
# (§8) Control samples (0%-inhibition in the absence of inhibitor, DMSO only) and 100%-inhibition (in the absence of enzyme) are assembled in replicates of four and used to calculate the %-inhibition in the presence of compounds.
# (§9) At this step compounds can be pre-incubated with enzyme if desired.
# (§10) The reactions are initiated by addition of 10 uL of the FAM-labeled substrate peptide pre-diluted in the same assay buffer. Final concentration of substrate peptide is 1 uM (HDAC1-2).
# (§11) The reactions are allowed to proceed at room temperature. Following incubation, the reactions are quenched by addition of 50 μL of termination buffer (100 mM HEPES, pH7.5, 0.01% Triton X-100, 0.1% SDS). Terminated plates are analyzed on a microfluidic electrophoresis instrument (Caliper LabChip® 3000, Caliper Life Sciences/Perkin Elmer) which enables electrophoretic separation of de-acetylated product from acetylated substrate. A change in the relative intensity of the peptide substrate and product is the parameter measured. Activity in each test sample is determined as the product to sum ratio (PSR): P/(S+P), where P is the peak height of the product, and S is the peak height of the substrate. Percent inhibition (Pinh) is determined using the following equation: Pinh=(PSR0% inh−PSRcompound)/(PSR0% inh−PSR100% inh)*100, in which: PSRcompound is the product/sum ratio in the presence of compound, PSR0% inh is the product/sum ratio in the absence of compound and the PSR100% inh is the product/sum ratio in the absence of the enzyme. To determine IC50 of compounds (50%-inhibition) the %-inh data (Pinh versus compound concentration) are fit by a 4 parameter sigmoid dose-response model using XLfit software (IDBS).
# as §1
# Full length Human HDAC1 = molecular target: T3, Full length Human HDAC1 (Homo sapiens, UniProt Q13547); test: HDAC1 enzymatic assay (deacetylation of FAM-labeled peptide substrate, microfluidic electrophoresis); type: biochemical; conditions: recombinant enzymatic assay
# T3 construct: Full length Human HDAC1; His (C); FLAG (C); host or cells: baculovirus expression system
# Procedure: as §2, §3, §4, §5, §6, §7, §8, §9, §10, §11, §1
# T1 sequence (Q92769 whole entry): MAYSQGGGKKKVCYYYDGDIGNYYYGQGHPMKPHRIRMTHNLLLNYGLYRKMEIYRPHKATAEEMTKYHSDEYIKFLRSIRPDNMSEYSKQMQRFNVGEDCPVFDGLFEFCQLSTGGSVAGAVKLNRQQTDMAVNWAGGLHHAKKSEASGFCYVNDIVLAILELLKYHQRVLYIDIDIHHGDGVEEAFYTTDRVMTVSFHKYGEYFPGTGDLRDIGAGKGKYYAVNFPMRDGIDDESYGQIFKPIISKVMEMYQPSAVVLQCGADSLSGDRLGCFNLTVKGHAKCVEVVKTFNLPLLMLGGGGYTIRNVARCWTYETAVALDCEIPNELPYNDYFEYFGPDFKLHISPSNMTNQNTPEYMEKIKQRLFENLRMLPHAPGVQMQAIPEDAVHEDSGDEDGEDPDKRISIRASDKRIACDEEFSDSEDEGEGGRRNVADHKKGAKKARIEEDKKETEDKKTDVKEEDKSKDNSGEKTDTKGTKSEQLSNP
# T2 sequence (Q92769 whole entry): as above
# T3 sequence (Q13547 whole entry): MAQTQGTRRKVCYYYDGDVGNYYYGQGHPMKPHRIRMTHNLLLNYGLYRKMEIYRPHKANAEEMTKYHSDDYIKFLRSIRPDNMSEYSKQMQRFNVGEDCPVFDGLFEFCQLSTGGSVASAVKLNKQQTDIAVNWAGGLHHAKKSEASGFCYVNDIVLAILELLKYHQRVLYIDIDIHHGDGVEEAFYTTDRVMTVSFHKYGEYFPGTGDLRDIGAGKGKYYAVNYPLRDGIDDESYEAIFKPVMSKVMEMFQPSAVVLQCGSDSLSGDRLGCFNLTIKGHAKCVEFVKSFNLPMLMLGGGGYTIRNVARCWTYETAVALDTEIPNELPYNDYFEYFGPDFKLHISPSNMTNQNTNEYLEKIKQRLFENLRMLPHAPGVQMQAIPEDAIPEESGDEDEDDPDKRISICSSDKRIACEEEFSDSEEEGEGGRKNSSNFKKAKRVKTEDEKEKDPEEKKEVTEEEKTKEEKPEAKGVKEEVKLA
SMILES,IC50 (HDAC2),"IC50 (Full length Human HDAC2; Table 2, class symbols)","IC50 (Full length Human HDAC1; Table 2, class symbols)","IC50 (Full length Human HDAC2; Table 2, numeric value)","IC50 (Full length Human HDAC1; Table 2, numeric value)"
Nc1ccc(-c2ccc(F)cc2F)nc1NC(=O)N1CC(Oc2ncccn2)C1 [Compound 59],> 2000 nM,500 to 1000 nM,< 500 nM,,
Nc1ccc(-c2ccc(F)cc2F)nc1NC(=O)N1CC(CCc2ncccn2)C1 [Compound 44],> 2000 nM,> 2000 nM,> 2000 nM,,
Cc1ccc(CC2CN(C(=O)Nc3nc(-c4ccc(F)cc4F)ccc3N)C2)cn1 [Compound 5],> 2000 nM,1000 to 2000 nM,1000 to 2000 nM,,
Cc1cnc(CC2CN(C(=O)Nc3nc(-c4ccc(F)s4)ccc3N)C2)o1 [Compound 62],> 2000 nM,,,,
Cc1cccc(CC2CN(C(=O)Nc3nc(-c4ccc(F)cc4)ccc3N)C2)n1 [Compound 79],> 2000 nM,1000 to 2000 nM,500 to 1000 nM,,
Nc1ccc(-c2ccc(F)cc2F)nc1NC(=O)N1CC(Cc2cccc3nccn23)C1 [Compound 48],> 2000 nM,,,,
Nc1ccc(-c2ccc(F)cc2F)nc1NC(=O)N1CC(Cc2cncnc2)C1 [Compound 20],> 2000 nM,,,,
Nc1ccc(-c2ccc(F)cc2)nc1NC(=O)N1CC(Cc2ncc(C(F)(F)F)cn2)C1 [Compound 84],> 2000 nM,,,1190 nM,346 nM
Nc1ccc(-c2ccc(F)cc2F)nc1NC(=O)N1CC(Cc2nnc(C(F)(F)F)s2)C1 [Compound 46],> 2000 nM,1000 to 2000 nM,1000 to 2000 nM,,
Nc1ccc(-c2ccc(F)cc2F)nc1NC(=O)N1CC(Oc2cccnc2)C1 [Compound 28],> 2000 nM,,,,
Cc1cc(CC2CN(C(=O)Nc3nc(-c4ccc(F)cc4F)ccc3N)C2)nc(C)n1 [Compound 10],> 2000 nM,,,,
COCc1cc(CC2CN(C(=O)Nc3nc(-c4ccc(F)cc4F)ccc3N)C2)ccn1 [Compound 18],> 2000 nM,,,,
Nc1ccc(-c2ccc(F)cc2F)nc1NC(=O)N1CC(Cc2ccc(C(F)(F)F)cn2)C1 [Compound 49],> 2000 nM,,,,
Cc1cnc(CC2CN(C(=O)Nc3nc(-c4ccc(F)cc4F)ccc3N)C2)s1 [Compound 25],> 2000 nM,,,,
Nc1ccc(-c2ccc(F)cc2F)nc1NC(=O)N1CC(Cc2ccn3cncc3c2)C1 [Compound 8],> 2000 nM,,,,
Cc1cnc(CC2CN(C(=O)Nc3nc(-c4ccc(F)cc4F)ccc3N)C2)o1 [Compound 55],> 2000 nM,,,,
COCc1cccc(CC2CN(C(=O)Nc3nc(-c4ccc(F)cc4F)ccc3N)C2)n1 [Compound 17],> 2000 nM,,,,
Nc1ccc(-c2ccc(F)cc2F)nc1NC(=O)N1CC(OCc2ccccn2)C1 [Compound 29],> 2000 nM,,,,
Nc1ccc(-c2ccc(F)cc2)nc1NC(=O)N1CC(C(F)(F)c2ccccn2)C1 [Compound 75],> 2000 nM,,,,
Cc1cncn1CC1CN(C(=O)Nc2nc(-c3ccc(F)cc3F)ccc2N)C1 [Compound 52],> 2000 nM,,,,
CCC(c1ncccn1)C1CN(C(=O)Nc2nc(-c3ccc(F)cc3F)ccc2N)C1 (centres unmarked) [Compound 56],> 2000 nM,,,,
Nc1ccc(-c2ccc(F)cc2)nc1NC(=O)N1CC(Cc2ccc(C(F)(F)F)cn2)C1 [Compound 85],> 2000 nM,,,,
CC(F)(c1ncccn1)C1CN(C(=O)Nc2nc(-c3ccc(F)cc3F)ccc2N)C1 (centres unmarked) [Compound 60],> 2000 nM,,,,
Cc1ccn(CC2CN(C(=O)Nc3nc(-c4ccc(F)cc4F)ccc3N)C2)n1 [Compound 53],> 2000 nM,,,,
Cc1cn(CC2CN(C(=O)Nc3nc(-c4ccc(F)cc4F)ccc3N)C2)cn1 [Compound 51],> 2000 nM,,,,
Cc1ccnn1CC1CN(C(=O)Nc2nc(-c3ccc(F)cc3F)ccc2N)C1 [Compound 54],1000 to 2000 nM,,,,
Cc1cc(C)nc(CC2CN(C(=O)Nc3nc(-c4ccc(F)cc4F)ccc3N)C2)n1 [Compound 50],> 2000 nM,,,,

# Continued, values first:
IC50 (HDAC2),"IC50 (Full length Human HDAC2; Table 2, class symbols)","IC50 (Full length Human HDAC1; Table 2, class symbols)","IC50 (Full length Human HDAC2; Table 2, numeric value)","IC50 (Full length Human HDAC1; Table 2, numeric value)",SMILES
1000 to 2000 nM,500 to 1000 nM,< 500 nM,,,Nc1ccc(-c2cccs2)nc1NC(=O)N1CC(C(F)(F)c2ncccn2)C1 [Compound 70]
1000 to 2000 nM,,,,,Cc1cnc(CC2CN(C(=O)Nc3nc(-c4ccc(F)cc4)ccc3N)C2)o1 [Compound 63]
1000 to 2000 nM,1000 to 2000 nM,< 500 nM,,,Nc1ccc(-c2cccs2)nc1NC(=O)N1CC(Cc2ncc(F)cn2)C1 [Compound 69]
1000 to 2000 nM,,,,,Nc1ccc(-c2ccc(F)cc2F)nc1NC(=O)N1CC(C(F)c2ncc(F)cn2)C1 (centres unmarked) [Compound 41]
< 500 nM,1000 to 2000 nM,500 to 1000 nM,,,Cc1ccc(CC2CN(C(=O)Nc3nc(-c4ccc(F)cc4F)ccc3N)C2)nn1 [Compound 24]
1000 to 2000 nM,1000 to 2000 nM,500 to 1000 nM,,,Cn1ccnc1CC1CN(C(=O)Nc2nc(-c3ccc(F)cc3F)ccc2N)C1 [Compound 47]
1000 to 2000 nM,500 to 1000 nM,< 500 nM,,,Nc1ccc(-c2ccc(F)cc2)nc1NC(=O)N1CC(Cc2ccccn2)C1 [Compound 74]
1000 to 2000 nM,1000 to 2000 nM,1000 to 2000 nM,,,Cc1cncc(CC2CN(C(=O)Nc3nc(-c4ccc(F)cc4F)ccc3N)C2)n1 [Compound 13]
1000 to 2000 nM,500 to 1000 nM,< 500 nM,,,Nc1ccc(-c2ccc(F)s2)nc1NC(=O)N1CC(Cc2ncc(F)cn2)C1 [Compound 61]
1000 to 2000 nM,500 to 1000 nM,< 500 nM,,,COCc1ccc(CC2CN(C(=O)Nc3nc(-c4ccc(F)cc4)ccc3N)C2)nc1 [Compound 83]
500 to 1000 nM,500 to 1000 nM,1000 to 2000 nM,,,Nc1ccc(-c2ccc(F)cc2F)nc1NC(=O)N1CC(Cc2cccnn2)C1 [Compound 23]
500 to 1000 nM,,,,,Cc1cnc(CC2CN(C(=O)Nc3nc(-c4ccc(F)s4)ccc3N)C2)nc1 [Compound 67]
500 to 1000 nM,< 500 nM,< 500 nM,,,Nc1ccc(-c2ccc(F)cc2)nc1NC(=O)N1CC(C(F)(F)c2ncc(F)cn2)C1 [Compound 38]
1000 to 2000 nM,500 to 1000 nM,500 to 1000 nM,,,Nc1ccc(-c2ccc(F)cc2F)nc1NC(=O)N1CC(C(F)(F)c2ncccn2)C1 [Compound 33]
500 to 1000 nM,1000 to 2000 nM,1000 to 2000 nM,,,Cc1cc(CC2CN(C(=O)Nc3nc(-c4ccc(F)cc4F)ccc3N)C2)ncn1 [Compound 19]
1000 to 2000 nM,500 to 1000 nM,500 to 1000 nM,,,Nc1ccc(-c2ccccc2F)nc1NC(=O)N1CC(Cc2ncc(F)cn2)C1 [Compound 26]
1000 to 2000 nM,> 2000 nM,1000 to 2000 nM,,,Cn1ccnc1CC1(F)CN(C(=O)Nc2nc(-c3ccc(F)cc3)ccc2N)C1 [Compound 86]
1000 to 2000 nM,500 to 1000 nM,< 500 nM,,,Nc1ccc(-c2ccc(F)cc2)nc1NC(=O)N1CC(Cc2ncc(C(F)F)cn2)C1 [Compound 76]
1000 to 2000 nM,,,,,Nc1ccc(-c2ccc(F)cc2F)nc1NC(=O)N1CC(Cc2ccncn2)C1 [Compound 32]
500 to 1000 nM,1000 to 2000 nM,< 500 nM,,,Nc1ccc(-c2ccc(F)cc2)nc1NC(=O)N1CC(Cc2ncccn2)C1 [Compound 64]
500 to 1000 nM,1000 to 2000 nM,500 to 1000 nM,,,Nc1ccc(-c2ccc(F)cc2F)nc1NC(=O)N1CC(C(F)c2ncccn2)C1 (centres unmarked) [Compound 40]
500 to 1000 nM,500 to 1000 nM,500 to 1000 nM,,,Nc1ccc(-c2ccc(F)cc2F)nc1NC(=O)N1CC(Cc2ncco2)C1 [Compound 22]
1000 to 2000 nM,,,,,CC(c1ncccn1)C1CN(C(=O)Nc2nc(-c3ccccc3F)ccc2N)C1 (centres unmarked) [Compound 58]

# From patent US20210276977A1, “BICYCLIC INHIBITORS OF HISTONE DEACETYLASE” (Alkermes, Inc., priority 2018, published 2021)
